Assay results reported in article PMC9014651 (Bioorganic Chemistry, 2022).
pIC50: −log10 of the molar value. Where a SMILES comes first, the peptide text is derived from it.

Experiments:
M^pro = conditions: cited from earlier work
SARS-CoV-2 M^pro [1] = molecular target: T1, SARS-CoV-2 M^pro (Severe acute respiratory syndrome coronavirus 2, UniProt P0DTD1); assay: IC50 measurement on M^pro; assay type: biochemical
SARS-CoV-2 M^pro [2] = molecular target: T1, SARS-CoV-2 M^pro; assay: FRET percent inhibition screening of M^pro inhibitors; assay type: biochemical; conditions: control experiments

Structure (SMILES): O=c1c2ccccc2sn1-c1ccccc1 [Ebsulfur]
- Reversibility of M^pro inhibition (M^pro): irreversibly inhibit

Structure (SMILES): Cc1ccccc1NC(=S)N/N=C/c1ccccc1O [2n, (E)-1-(2-hydroxybenzylidene)-4-o-tolylthiosemicarbazide]
- pIC50 (SARS-CoV-2 M^pro [1]): 4.68

Structure (SMILES): CC(C)C[C@H](NC(=O)OCc1ccccc1)C(=O)N[C@@H](CC1CCNC1=O)C(O)S(=O)(=O)[O-].[Na+] (stereo partly shown) [GC-376]
- IC50 value range (M^pro) (M^pro): single-digit to sub-micromolar

Structure (SMILES): O=C(CC(c1ccccc1)c1ccccc1)NO [N-hydroxy-3,3-diphenylpropanamide]
- Inhibitory effect on M^pro (control experiment) (SARS-CoV-2 M^pro [2]): no inhibitory effect

Structure (SMILES): CSCC[C@@H](C=O)NC(=O)[C@H](CC(C)C)NC(=O)[C@H](CC(C)C)NC(C)=O [calpain inhibitors II] (Ac-Leu-Leu-Met-aldehyde)
- IC50 value range (M^pro) (M^pro): single-digit to sub-micromolar

Structure (SMILES): CC(C)(C)NC(=O)N[C@H](C(=O)N1C[C@H]2[C@@H]([C@H]1C(=O)NC(CC1CCC1)C(=O)C(N)=O)C2(C)C)C(C)(C)C (stereo partly shown) [boceprevir]
- IC50 value range (M^pro) (M^pro): single-digit to sub-micromolar

Structure (SMILES): O=c1c2ccccc2[se]n1-c1ccccc1 [Ebselen]
- Effect of binding on M^pro stability (thermal shift) (M^pro): destabilization
- Reversibility of M^pro inhibition (M^pro): irreversibly inhibit

Structure (SMILES): CCN(CC)C(=S)SSC(=S)N(CC)CC [disulfiram]
- Effect of binding on M^pro stability (thermal shift) (M^pro): destabilization

Structure (SMILES): CCCC(NC(=O)C(CC(C)C)NC(=O)OCc1ccccc1)C(=O)C(=O)NCc1ccccn1 (stereo not shown) [XII]
- IC50 value range (M^pro) (M^pro): single-digit to sub-micromolar
